Values quoted from earlier work as cited in patent publication EP0385476B2, “Physiologically active polypeptide and DNA” (SHIONOGI & CO., LTD., priority 1989, dated 1999).

Tested on: chicken rectum
Conditions: relative to ANP

**Q.** Which “rectum relaxation activity, times higher than that of ANP” value does the source give for “porcine brain natriuretic peptide [pBNP]” here?
**A.** Its value is 3 to 4 times.
